Values of other authors in US9839604B1, “Composition for an anti-aging treatment” (Parham Tabibian, MD, Inc., priority 2014, dated 2017).

Legend:
[1] = compared with other forms of Vitamin K1 and K2, also remains in the bloodstream longer
[2] = humectant capacity

levels reached in the bloodstream relative to other forms of Vitamin K1 and K2 [1] | water attracted and bound [2] | Compound
seven- to eight-fold higher | – | CC(C)=CCC/C(C)=C/CC/C(C)=C/CC/C(C)=C/CC/C(C)=C/CC/C(C)=C/CC/C(C)=C/CC1=C(C)C(=O)c2ccccc2C1=O [MK-7]
– | up to 1800 times its own weight in water | hyaluronic acid
